Results published in publication PMC8161026, “Synthesis and Anticancer Activity Evaluation of 5-[2-Chloro-3-(4-nitrophenyl)-2-propenylidene]-4-thiazolidinones” (Molecules, 2021).

Assays:
SK-MEL-2 [1] = conditions: SK-MEL-2 (Melanoma), 48 h, SRB
HCT-15 = test: NCI DTP 60 cell line screen, SRB
NCI-H23 [2] = conditions: NCI-H23 (Non-Small Cell Lung Cancer), 48 h, SRB
SW-620 = SW-620 (Colon Cancer), 48 h, SRB
LOX IMVI = LOX IMVI (Melanoma), 48 h, SRB
HL-60(TB) = HL-60(TB) (Leukemia), 48 h, SRB
SF-539 = test: NCI DTP 60 cell line screen, SRB
SF-268 = test: NCI DTP 60 cell line screen, SRB
SK-MEL-2 [3] = test: cells; conditions: Homo sapiens, SK-MEL-2, 48 h
KM12 [4] = test: cells; conditions: Homo sapiens, KM12, 48 h
OVCAR-5 = test: NCI DTP 60 cell line screen, SRB
SK-MEL-5 = test: NCI DTP 60 cell line screen, SRB
KM12 [5] = conditions: KM12 (Colon Cancer), 48 h, SRB
NCI-H522 = test: NCI DTP 60 cell line screen, SRB
TK-10 = test: NCI DTP 60 cell line screen, SRB
K-562 [6] = conditions: K-562 (Leukemia), 48 h, SRB
SR [7] = conditions: SR (Leukemia), 48 h, SRB
786-0 = test: cells; conditions: Homo sapiens, 786-0, 48 h
SK-OV-3 = test: NCI DTP 60 cell line screen, SRB
MALME-3M = test: NCI DTP 60 cell line screen, SRB; conditions: 48 h
CAKI-1 = test: NCI DTP 60 cell line screen, SRB
HS 578T = test: NCI DTP 60 cell line screen, SRB; conditions: 48 h
UACC-62 = test: NCI DTP 60 cell line screen, SRB
SNB-75 = SNB-75 (CNS Cancer), 48 h, SRB
U251 = U251 (CNS Cancer), 48 h, SRB
K-562 [8] = test: cells; conditions: Homo sapiens, K562, 48 h
NCI-H23 [9] = test: cells; conditions: Homo sapiens, NCI-H23, 48 h
SR [10] = test: cells; conditions: Homo sapiens, 48 h
NCI/ADR-Res = test: NCI DTP 60 cell line screen, SRB; conditions: 48 h
BT-549 = test: NCI DTP 60 cell line screen, SRB
DU-145 = DU-145 (Prostate Cancer), 48 h, SRB
NCI-H226 = test: NCI DTP 60 cell line screen, SRB

O=C1NC(=S)S/C1=C\C(Cl)=C\c1ccc([N+](=O)[O-])cc1 [Compound 2b, 5-[(Z,2Z)-2-Chloro-3-(4-nitrophenyl)-2-propenylidene]-2-thioxo-4-thiazolidinone]
TGI (SK-MEL-2 [1]): 26.9 µM
TGI (HCT-15; HCT-15 (Colon Cancer), 48 h, SRB): 8.81 µM
GI50 (HCT-15; Homo sapiens, HCT-15, 48 h): 1.79 µM
CC50 (HCT-15; Homo sapiens, HCT-15, 48 h, read-out: LC50): 25.4 µM
TGI (NCI-H23 [2]): 13.4 µM
TGI (SW-620): 7.62 µM
TGI (LOX IMVI): 15.4 µM
TGI (HL-60(TB)): 14.4 µM
GI50 (SF-539; Homo sapiens, SF-539, 48 h): 9.39 µM
CC50 (SF-539; Homo sapiens, SF-539, 48 h, read-out: LC50): > 50 µM
TGI (SF-539; SF-539 (CNS Cancer), 48 h, SRB): 23.1 µM
GI50 (SF-268; Homo sapiens, SF-268, 48 h): 5.24 µM
CC50 (SF-268; Homo sapiens, SF-268, 48 h, read-out: LC50): > 50 µM
TGI (SF-268; SF-268 (CNS Cancer), 48 h, SRB): 18.9 µM
GI50 (SK-MEL-2 [3]): 8.07 µM
CC50 (SK-MEL-2 [3]; read-out: LC50): > 50 µM
GI50 (KM12 [4]): 5.27 µM
CC50 (KM12 [4]; read-out: LC50): 40.4 µM
GI50 (OVCAR-5; Homo sapiens, OVCAR-5, 48 h): 11.1 µM
CC50 (OVCAR-5; Homo sapiens, OVCAR-5, 48 h, read-out: LC50): 32.4 µM
TGI (OVCAR-5; OVCAR-5 (Ovarian Cancer), 48 h, SRB): 19.5 µM
GI50 (SK-MEL-5; Homo sapiens, SK-MEL-5, 48 h): 3.82 µM
CC50 (SK-MEL-5; Homo sapiens, SK-MEL-5, 48 h, read-out: LC50): 24 µM
TGI (SK-MEL-5; SK-MEL-5 (Melanoma), 48 h, SRB): 10.6 µM
TGI (KM12 [5]): 14.6 µM
GI50 (NCI-H522; Homo sapiens, NCI-H522, 48 h): 3.19 µM
CC50 (NCI-H522; Homo sapiens, NCI-H522, 48 h, read-out: LC50): 42.3 µM
TGI (NCI-H522; NCI-H522 (Non-Small Cell Lung Cancer), 48 h, SRB): 13.1 µM
GI50 (TK-10; Homo sapiens, TK-10, 48 h): 10.6 µM
CC50 (TK-10; Homo sapiens, TK-10, 48 h, read-out: LC50): > 50 µM
TGI (TK-10; TK-10 (Renal Cancer), 48 h, SRB): 23.2 µM
TGI (K-562 [6]): 42.5 µM
TGI (SR [7]): 7.96 µM
GI50 (786-0): 9.4 µM
CC50 (786-0; read-out: LC50): 37.6 µM
GI50 (SK-OV-3; Homo sapiens, SK-OV-3, 48 h): 13 µM
CC50 (SK-OV-3; Homo sapiens, SK-OV-3, 48 h, read-out: LC50): > 50 µM
TGI (SK-OV-3; SK-OV-3 (Ovarian Cancer), 48 h, SRB): > 50 µM
GI50 (MALME-3M; Homo sapiens, Malme-3M): 4.93 µM
CC50 (MALME-3M; Homo sapiens, Malme-3M, read-out: LC50): 44.6 µM
TGI (MALME-3M; MALME-3M (Melanoma), SRB): 14.9 µM
TGI (CAKI-1; CAKI-1 (Renal Cancer), 48 h, SRB): 25.2 µM
GI50 (CAKI-1; Homo sapiens, CAKI-1, 48 h): 7.14 µM
CC50 (CAKI-1; Homo sapiens, CAKI-1, 48 h, read-out: LC50): > 50 µM
TGI (HS 578T; HS 578T (Breast Cancer), SRB): 12.1 µM
GI50 (HS 578T; Homo sapiens, Hs-578T): 1.42 µM
CC50 (HS 578T; Homo sapiens, Hs-578T, read-out: LC50): > 50 µM
GI50 (UACC-62; Homo sapiens, UACC-62, 48 h): 5.75 µM
CC50 (UACC-62; Homo sapiens, UACC-62, 48 h, read-out: LC50): 27.2 µM
TGI (UACC-62; UACC-62 (Melanoma), 48 h, SRB): 12.5 µM
TGI (SNB-75): 23.5 µM
TGI (U251): 9.73 µM
GI50 (K-562 [8]): 1.44 µM
CC50 (K-562 [8]; read-out: LC50): > 50 µM
GI50 (NCI-H23 [9]): 3.27 µM
CC50 (NCI-H23 [9]; read-out: LC50): 45.5 µM
GI50 (SR [10]): 1.18 µM
CC50 (SR [10]; read-out: LC50): > 50 µM
GI50 (NCI/ADR-Res; Homo sapiens, NCI/ADR-RES): 5.71 µM
CC50 (NCI/ADR-Res; Homo sapiens, NCI/ADR-RES, read-out: LC50): > 50 µM
TGI (NCI/ADR-Res; NCI/ADR-Res (Breast Cancer), SRB): 18.3 µM
TGI (BT-549; BT-549 (Breast Cancer), 48 h, SRB): 4.74 µM
GI50 (BT-549; Homo sapiens, BT-549, 48 h): 1.47 µM
CC50 (BT-549; Homo sapiens, BT-549, 48 h, read-out: LC50): 27.2 µM
TGI (DU-145): 14.2 µM
GI50 (NCI-H226; Homo sapiens, NCI-H226, 48 h): 6.28 µM
CC50 (NCI-H226; Homo sapiens, NCI-H226, 48 h, read-out: LC50): > 50 µM
TGI (NCI-H226; NCI-H226 (Non-Small Cell Lung Cancer), 48 h, SRB): 20.0 µM
